According to patent US8716281B2, “Pyrimidine compounds that inhibit anaplastic lymphoma kinase” (Amgen Inc., priority 2010, dated 2014):

biological target: T1, wild-type human ALK cytoplasmic domain (amino acids 1058-1620) (Homo sapiens, UniProt Q9UM73); experiment: ALK Inhibition in Enzyme Assay (Lance TR-FRET); type: biochemical; details: not given
T1 construct: The cytoplasmic domain (amino acids 1058-1620) of wild-type human ALK; GST (N); made in house; host or cells: SF9 insect cells
Procedure, shortened: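 TR-FRET read-out (Eu-W1024 PT66 anti-phosphotyrosine plus streptavidin-allophycocyanin, 320 nm excitation) quantified biotinylated peptide phosphorylation by the purified kinase. Reaction ran 90 minutes at room temperature before quenching with 20 mM EDTA in Tris pH 7.5 buffer with NaCl, BSA and Tween-20.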

T1 sequence (Q9UM73 1058-1620): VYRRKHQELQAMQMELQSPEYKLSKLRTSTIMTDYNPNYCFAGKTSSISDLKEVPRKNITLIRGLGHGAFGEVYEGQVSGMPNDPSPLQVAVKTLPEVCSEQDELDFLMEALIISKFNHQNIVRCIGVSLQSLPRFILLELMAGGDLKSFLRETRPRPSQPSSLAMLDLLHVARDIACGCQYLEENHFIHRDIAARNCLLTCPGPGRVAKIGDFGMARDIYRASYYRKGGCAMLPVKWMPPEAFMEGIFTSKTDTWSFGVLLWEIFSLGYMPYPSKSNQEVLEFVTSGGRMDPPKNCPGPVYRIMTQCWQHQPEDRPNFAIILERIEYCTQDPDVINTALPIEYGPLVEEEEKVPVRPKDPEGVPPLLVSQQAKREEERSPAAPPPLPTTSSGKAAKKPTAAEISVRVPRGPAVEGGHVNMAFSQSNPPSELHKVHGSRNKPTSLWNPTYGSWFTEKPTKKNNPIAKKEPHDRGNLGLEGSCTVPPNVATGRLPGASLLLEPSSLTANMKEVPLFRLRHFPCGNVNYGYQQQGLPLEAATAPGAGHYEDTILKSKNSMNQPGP

IC50	Structure (SMILES)
5000 to 10000 nM	COc1cc(Nc2nccc(N3CCC[C@H](C(=O)NCCCc4ccccc4)C3)n2)cc(OC)c1OC [Example 126, (S)-N-(3-phenylpropyl)-1-(2-((3,4,5-trimethoxyphenyl)amino)-4-pyrimidinyl)-3-piperidinecarboxamide]

same assay, conditions: 2 nM enzyme, ATP at 40 μM (Km apparent), 90 minutes, mean of three replicates; read-out: ALK IC50

IC50	Structure (SMILES)
1000 to 5000 nM	COc1cc(Nc2nccc(N3CCC[C@H](C(=O)NC[C@H](C)c4ccccc4)C3)n2)cc(OC)c1OC [Example 101, (S)-N-((R)-2-phenylpropyl)-1-(2-((3,4,5-trimethoxyphenyl)amino)-4-pyrimidinyl)-3-piperidinecarboxamide]
100 to 1000 nM	COc1cc(Nc2nccc(N3CCC[C@H](C(=O)NCCc4ccccc4F)C3)n2)cc(OC)c1OC [Example 102, (S)-N-(2-(2-fluorophenyl)ethyl)-1-(2-((3,4,5-trimethoxyphenyl)amino)-4-pyrimidinyl)-3-piperidinecarboxamide]
100 to 1000 nM	COc1cc(Nc2nccc(N3CCC[C@H](C(=O)NCc4cccc(F)c4)C3)n2)cc(OC)c1OC [Example 104, (S)-N-(3-fluorobenzyl)-1-(2-((3,4,5-trimethoxyphenyl)amino)-4-pyrimidinyl)-3-piperidinecarboxamide]
1000 to 5000 nM	COc1cc(Nc2nccc(N3CCC[C@H](C(=O)NCc4cccc(Oc5ccc(Cl)cc5)c4)C3)n2)cc(OC)c1OC [Example 105, (S)-N-(3-(4-chlorophenoxy)benzyl)-1-(2-((3,4,5-trimethoxyphenyl)amino)-4-pyrimidinyl)-3-piperidinecarboxamide]
< 50 nM	COc1cc(Nc2nccc(N3CCC[C@H](C(=O)NCc4cccc(-c5ccc(Cl)cc5)c4)C3)n2)cc(OC)c1OC [Example 106, (S)-N-((4′-chloro-3-biphenylyl)methyl)-1-(2-((3,4,5-trimethoxyphenyl)amino)-4-pyrimidinyl)-3-piperidinecarboxamide]
< 50 nM	COc1cc(Nc2nccc(N3CCC[C@H](C(=O)NCc4cccc(-c5ccc(F)cc5)c4)C3)n2)cc(OC)c1OC [Example 108, (S)-N-((4′-fluoro-3-biphenylyl)methyl)-1-(2-((3,4,5-trimethoxyphenyl)amino)-4-pyrimidinyl)-3-piperidinecarboxamide]
100 to 1000 nM	CCOC(=O)C(C)Cc1cccc(CNC(=O)[C@H]2CCCN(c3ccnc(Nc4cc(OC)c(OC)c(OC)c4)n3)C2)c1 (stereo partly drawn) [Example 109, ethyl 2-methyl-3-(3-(((((S)-1-(2-((3,4,5-trimethoxyphenyl)amino)-4-pyrimidinyl)-3-piperidinyl)carbonyl)amino)methyl)phenyl)propanoate]
< 50 nM	COc1cc(Nc2nccc(N3CCC[C@H](C(=O)NCc4cccc(-n5cccc5)c4)C3)n2)cc(OC)c1OC [Example 110, (S)-N-(3-(1H-pyrrol-1-yl)benzyl)-1-(2-((3,4,5-trimethoxyphenyl)amino)-4-pyrimidinyl)-3-piperidinecarboxamide]
100 to 1000 nM	COc1cc(Nc2nccc(N3CCC[C@H](C(=O)NCc4cccc(-n5cccn5)c4)C3)n2)cc(OC)c1OC [Example 111, (S)-N-(3-(1H-pyrazol-1-yl)benzyl)-1-(2-((3,4,5-trimethoxyphenyl)amino)-4-pyrimidinyl)-3-piperidinecarboxamide]
< 50 nM	COc1cc(Nc2nccc(N3CCC[C@H](C(=O)NCc4cccc(Br)c4)C3)n2)cc(OC)c1OC [Example 113, (S)-N-(3-bromobenzyl)-1-(2-((3,4,5-trimethoxyphenyl)amino)-4-pyrimidinyl)-3-piperidinecarboxamide]
1000 to 5000 nM	COc1cc(Nc2nccc(N3CCC[C@H](C(=O)NCc4cccc(Oc5ccc(C)cc5)c4)C3)n2)cc(OC)c1OC [Example 114, (S)-N-(3-(4-methylphenoxy)benzyl)-1-(2-((3,4,5-trimethoxyphenyl)amino)-4-pyrimidinyl)-3-piperidinecarboxamide]
100 to 1000 nM	COc1cc(Nc2nccc(N3CCC[C@H](C(=O)NCc4ccc(C#N)cc4)C3)n2)cc(OC)c1OC [Example 115, (S)-N-(4-cyanobenzyl)-1-(2-((3,4,5-trimethoxyphenyl)amino)-4-pyrimidinyl)-3-piperidinecarboxamide]
50 to 100 nM	COc1cc(Nc2nccc(N3CCC[C@H](C(=O)NCc4ccc(Oc5ccccc5)cc4)C3)n2)cc(OC)c1OC [Example 116, (S)-N-(4-phenoxybenzyl)-1-(2-((3,4,5-trimethoxyphenyl)amino)-4-pyrimidinyl)-3-piperidinecarboxamide]
< 50 nM	COc1cc(Nc2nccc(N3CCC[C@H](C(=O)NCc4ccc(C(C)C)cc4)C3)n2)cc(OC)c1OC [Example 117, (S)-N-(4-(1-methylethyl)benzyl)-1-(2-((3,4,5-trimethoxyphenyl)amino)-4-pyrimidinyl)-3-piperidinecarboxamide]
100 to 1000 nM	COc1cc(Nc2nccc(N3CCC[C@H](C(=O)NCc4ccc(Oc5ccc(Cl)cc5)cc4)C3)n2)cc(OC)c1OC [Example 118, (S)-N-(4-(4-chlorophenoxy)benzyl)-1-(2-((3,4,5-trimethoxyphenyl)amino)-4-pyrimidinyl)-3-piperidinecarboxamide]
100 to 1000 nM	COc1cc(Nc2nccc(N3CCC[C@H](C(=O)NCc4ccc(Oc5ccc(C)cc5)cc4)C3)n2)cc(OC)c1OC [Example 119, (S)-N-(4-(4-methylphenoxy)benzyl)-1-(2-((3,4,5-trimethoxyphenyl)amino)-4-pyrimidinyl)-3-piperidinecarboxamide]
1000 to 5000 nM	COc1cc(Nc2nccc(N3CCC[C@H](C(=O)NCc4ccc(-c5cc(Cl)cc(Cl)c5)cc4)C3)n2)cc(OC)c1OC [Example 120, (S)-N-((3′,5′-dichloro-4-biphenylyl)methyl)-1-(2-((3,4,5-trimethoxyphenyl)amino)-4-pyrimidinyl)-3-piperidinecarboxamide]
100 to 1000 nM	COc1cc(Nc2nccc(N3CCC[C@H](C(=O)NCc4ccc(-c5ccccc5Cl)cc4)C3)n2)cc(OC)c1OC [Example 121, (S)-N-((2′-chloro-4-biphenylyl)methyl)-1-(2-((3,4,5-trimethoxyphenyl)amino)-4-pyrimidinyl)-3-piperidinecarboxamide]
1000 to 5000 nM	COc1cc(Nc2nccc(N3CCC[C@H](C(=O)NCc4ccc(S(C)(=O)=O)cc4)C3)n2)cc(OC)c1OC [Example 122, (S)-N-(4-(methylsulfonyl)benzyl)-1-(2-((3,4,5-trimethoxyphenyl)amino)-4-pyrimidinyl)-3-piperidinecarboxamide]
100 to 1000 nM	COc1cc(Nc2nccc(N3CCC[C@H](C(=O)NCc4ccc(-c5ccc(F)cc5)cc4)C3)n2)cc(OC)c1OC [Example 123, (S)-N-((4′-fluoro-4-biphenylyl)methyl)-1-(2-((3,4,5-trimethoxyphenyl)amino)-4-pyrimidinyl)-3-piperidinecarboxamide]
1000 to 5000 nM	COc1cc(Nc2nccc(N3CCC[C@H](C(=O)NCc4ccc(NC(C)=O)cc4)C3)n2)cc(OC)c1OC [Example 124, (S)-N-(4-(acetylamino)benzyl)-1-(2-((3,4,5-trimethoxyphenyl)amino)-4-pyrimidinyl)-3-piperidinecarboxamide]
< 50 nM	COc1cc(Nc2nccc(N3CCC[C@H](C(=O)NC(C#N)c4ccc(OC(F)(F)F)cc4)C3)n2)cc(OC)c1OC (stereo partly drawn) [Example 127, (S)-N-(cyano(4-(trifluoromethoxy)phenyl)methyl)-1-(2-(3,4,5-trimethoxyphenylamino)pyrimidin-4-yl)piperidine-3-carboxamide]
